Laboratory results reported in patent US20080317674A1, “Method and Reagent for Measuring Nitroreductase Enzyme Activity” (priority 2004, published 2008).

Columns and labels:
NTR enzyme = NTR enzyme (Escherichia coli, UniProt P38489); assay: Shift in absorption maximum after action of NTR upon a substrate; format: biochemical
Method: Compound (8) in DMSO (1 mMol) (4 μl ) was diluted into PBS buffer (0.01M) (1.76 ml). The UV/Vis spectrum of the solution was measured. The substrate has an absorbance maximum at 682 nm AU=0.22. To the solution was added NADH (0.01M in PBS) (200 μl) and NTR enzyme (446 ng/ml, 37 μl) the mixture was leave to stand at room temperature for 30 mins. After this time, the absorbance spectrum was re-measured. A new absorbance maximum at 621 nm, AU=0.17 is observed.

nitroreductase (NTR) = target: T1, nitroreductase (NTR) (Escherichia coli, UniProt P38489); assay: Nitroreductase gene reporter assay (adenoviral NF-κB NTR reporter, HeLa cells); format: cell-based; details: control sample cells containing the reporter, no agonist, vs mock transduced cells
T1 construct: expressed in transfected cells
T1 sequence (P38489 whole entry): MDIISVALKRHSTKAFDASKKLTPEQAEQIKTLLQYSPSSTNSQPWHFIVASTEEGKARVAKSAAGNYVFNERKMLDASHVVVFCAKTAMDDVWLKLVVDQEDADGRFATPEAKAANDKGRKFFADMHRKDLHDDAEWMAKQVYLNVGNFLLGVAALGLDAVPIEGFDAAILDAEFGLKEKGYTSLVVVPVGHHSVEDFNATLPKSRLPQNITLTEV
Method: A reporter construct containing the NF-κB response element upstream of the NTR gene was constructed in pDC511 (Admax™). The reporter was packaged with AdS genomic DNA in helper cells, HEK293, and replication incompetent Adenovirus rescued.
HeLa cells were subcultured for twenty-four hours prior to viral transduction and incubated overnight at 37° C. in a humidified atmosphere of 5% CO2 in Dulbecco's Modified Eagles medium containing 10% foetal calf serum +2 mM L-glutamine. After the overnight incubation, the cells were detached from each flask with trypsin, pooled to produce a suspension of cells and the cell concentration determined. The HeLa cell suspension was mixed with virus at a predetermined multiplicity of infection (MOI) in a sufficient minimal volume of complete medium to cover the base of a tissue culture flask; typically 15 ml for 10^6 cells in a T75 cm^2 Costar flask. The cell/virus suspension was returned to the incubator and left overnight at 37° C. in a humidified atmosphere of 5% CO2. […] The cells were detached with trypsin and pooled to produce a suspension of transduced cells; the concentration of the cell suspension was determined and adjusted to 5.0×10^4 cells per ml. […] The fluorescence signal was monitored over time by means of a Tecan “Ultra” fluorimeter. All substrates were measured under identical conditions to avoid instrument artefacts. […]

nitroreductase = target: T2, nitroreductase (Escherichia coli, UniProt P38489); assay: Live cell NTR assays, signal retention after fixation of cells; format: cell-based; details: live cell NTR assay, cells fixed
T2 construct: expressed in transfected cells
T2 sequence (P38489 whole entry): as above
Source text: Further examples of the utility of nitro-substituted squaraine dyes (Compounds (2), (3) and (4)) as nitroreductase substrates are shown in live cell NTR assays, FIG. 5.

Sequence of NTR enzyme (P38489 whole entry): as above

Which “new absorbance maximum after action of NTR” value (NTR enzyme; NADH and NTR enzyme added, room temperature, 30 mins) does the source give for `C[n+]1c(C=C2C(=O)C(C=C3N(CCCCS(=O)(=O)O)c4ccc(S(=O)(=O)O)cc4C3(C)C)=C2[O-])ccc2cc([N+](=O)[O-])ccc21` [Compound (8), 2-((3,3-dimethyl-5-sulfo-1-(4-sulfobutyl)-1,3-dihydro-2H-indol-2-ylidene)methyl)-4-((1-methyl-6-nitroquinolinium-2-yl)methylene)-3-oxocyclobut-1-en-1-olate] here?
Its value is 621 nm.

And the “absorbance at new maximum after action of NTR” value (NTR enzyme; at 621 nm, NADH and NTR enzyme added, room temperature, 30 mins)?
The value was 0.17 AU.

What about the “absorbance maximum of substrate” value (NTR enzyme; before NTR, PBS buffer 0.01M) of the same compound?
Its value is 682 nm.

What about the “absorbance at maximum of substrate” value (NTR enzyme; before NTR, at 682 nm, PBS buffer) of the same compound?
The value was 0.22 AU.

`CN1/C(=C\C2=C([O-])C(=C\C3=[N+](Cc4cc([N+](=O)[O-])cc([N+](=O)[O-])c4)c4ccccc4C3(C)C)/C2=O)C(C)(C)c2ccccc21` [Compound (1), 2-(1-methyl-3,3-dimethyl-2-indolinylidenemethyl)-4-(1-(3,5-dinitrobenzyl)-3,3-dimethyl-2-indolinylidenemethyl)cyclobutenediylium-1,3-diolate] was tested. Which “detection of basal transcriptional activity” value (nitroreductase (NTR)) did it give?
The value was “not sensitive enough to detect this low level activity”.

With `CC[n+]1c(/C=C2/C(=O)C(/C=C3\N(CCOCCOC)c4ccccc4C3(C)C)=C2[O-])sc2cc([N+](=O)[O-])ccc21` [Compound (4), 2-(3-ethyl-6-nitro-2-benzothiazolinylidenemethyl)-4-(1-(2-(2-methoxyethoxy)ethyl)-3,3-dimethyl-2-indolinylidenemethyl)cyclobutenediylium-1,3-diolate] as the compound, how does the signal lost post-fixation (nitroreductase) read?
The signal lost post-fixation was about 50%.
